In one assay the target is hCA I (Homo sapiens, UniProt P00915). Briefly: Stopped-flow CA catalysed CO2 hydration inhibition assay, hCA I. The assay is classed as biochemical.
A further assay addresses hCA II (Homo sapiens, UniProt P00918). Briefly: Stopped-flow CA catalysed CO2 hydration inhibition assay, hCA II. The assay is classed as biochemical.
For a further assay, the target named is hCA IX (Homo sapiens, UniProt Q16790). Briefly: biochemical.
In another assay the target is hCA XII (Homo sapiens, UniProt O43570). Nature of the assay: Stopped-flow CA catalysed CO2 hydration inhibition assay, hCA XII. Format: biochemical.
Sequence of hCA XII (O43570 30-289 limits assumed): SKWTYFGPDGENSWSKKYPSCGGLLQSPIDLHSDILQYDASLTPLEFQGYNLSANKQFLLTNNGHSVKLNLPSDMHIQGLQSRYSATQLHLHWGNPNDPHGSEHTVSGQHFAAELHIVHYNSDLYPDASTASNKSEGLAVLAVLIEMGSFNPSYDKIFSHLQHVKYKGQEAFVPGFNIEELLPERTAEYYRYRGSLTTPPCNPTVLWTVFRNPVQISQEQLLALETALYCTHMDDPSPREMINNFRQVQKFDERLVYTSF

Sequence of hCA I (P00915 whole entry): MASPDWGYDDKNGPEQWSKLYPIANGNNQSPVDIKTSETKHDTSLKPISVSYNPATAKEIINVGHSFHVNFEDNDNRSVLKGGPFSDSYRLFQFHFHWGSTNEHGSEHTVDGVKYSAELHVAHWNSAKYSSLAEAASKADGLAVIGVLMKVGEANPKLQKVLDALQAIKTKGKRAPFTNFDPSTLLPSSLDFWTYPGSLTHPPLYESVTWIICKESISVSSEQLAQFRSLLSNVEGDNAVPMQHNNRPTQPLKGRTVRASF

What is called Ki is the equilibrium dissociation constant of an inhibitor or competing ligand from its target. Read a high Ki as a looser hold on the target. `COC(=O)Cc1c(C)c2ccc(OCC(=O)c3ccc(C)cc3)c(C)c2oc1=O` [EMAC10163a, Methyl 2‐{4,8‐dimethyl‐7‐[2‐(4‐methylphenyl)‐2‐oxoethoxy]‐2‐oxo‐2H‐chromen‐3‐yl}acetate]: the inhibition constant (Ki) is over 100 µM at hCA I, over 100 µM on hCA II, 2.98 µM at hCA IX and 2.52 µM at hCA XII.
Regarding `COC(=O)Cc1c(C)c2ccc(OCC(=O)c3ccc(OC)cc3)c(C)c2oc1=O` [EMAC10163b, Methyl 2-(7-(2-(4-methoxyphenyl)-2-oxoethoxy)-4,8-dimethyl-2-oxo-2H-chromen-3-yl)acetate], the Ki is over 100 µM at hCA I, over 100 µM on hCA II, 0.53 µM at hCA IX and 0.47 µM at hCA XII.
On to `COC(=O)Cc1c(C)c2ccc(OCC(=O)c3ccc(Br)cc3)c(C)c2oc1=O` [EMAC10163c, Methyl 2-(7-(2-(4-bromophenyl)-2-oxoethoxy)-4,8-dimethyl-2-oxo-2H-chromen-3-yl)acetate], for which the Ki on hCA I is over 100 µM; at hCA II, over 100 µM; at hCA IX, 4.16 µM; on hCA XII, 5.43 µM.
Regarding `COC(=O)Cc1c(C)c2ccc(OCC(=O)c3ccc(F)cc3)c(C)c2oc1=O` [EMAC10163d, Methyl 2-(7-(2-(4-fluorophenyl)-2-oxoethoxy)-4,8-dimethyl-2-oxo-2H-chromen-3-yl)acetate], the Ki was over 100 µM at hCA I, over 100 µM at hCA II, 2.39 µM on hCA IX and 6.04 µM on hCA XII.
As to `COC(=O)Cc1c(C)c2ccc(OCC(=O)c3ccc([N+](=O)[O-])cc3)c(C)c2oc1=O` [EMAC10163e, Methyl 2-(4,8-dimethyl-7-(2-(4-nitrophenyl)-2-oxoethoxy)-2-oxo-2H-chromen-3-yl)acetate], the Ki was over 100 µM on hCA I, over 100 µM at hCA II, 4.64 µM at hCA IX and 7.84 µM at hCA XII.
For the compound `COC(=O)Cc1c(C)c2ccc(OCC(=O)c3cccc([N+](=O)[O-])c3)c(C)c2oc1=O` [EMAC10163f, Methyl 2-(4,8-dimethyl-7-(2-(3-nitrophenyl)-2-oxoethoxy)-2-oxo-2H-chromen-3-yl)acetate], the Ki at hCA I is over 100 µM; on hCA II, over 100 µM; on hCA IX it was over 100 µM; on hCA XII it was 7.82 µM.
For the compound `COC(=O)Cc1c(C)c2ccc(OCC(=O)c3ccc(-c4ccccc4)cc3)c(C)c2oc1=O` [EMAC10163g, Methyl 2-(7-(2-([1,1′-biphenyl]-4-yl)-2-oxoethoxy)-4,8-dimethyl-2-oxo-2H-chromen-3-yl)acetate], the Ki on hCA I is over 100 µM; on hCA II, over 100 µM; at hCA IX, over 100 µM; at hCA XII, 8.88 µM.
On to `COC(=O)Cc1c(C)c2ccc(OCC(=O)c3ccc(F)cc3F)c(C)c2oc1=O` [EMAC10163h, Methyl 2-(7-(2-(2,4-difluorophenyl)-2-oxoethoxy)-4,8-dimethyl-2-oxo-2H-chromen-3-yl)acetate], for which the Ki is over 100 µM at hCA I, over 100 µM on hCA II, 4.51 µM on hCA IX and 5.56 µM on hCA XII.
For the compound `COC(=O)Cc1c(C)c2ccc(OCC(=O)c3ccccc3)c(C)c2oc1=O` [EMAC10163i, Methyl 2-(4,8-dimethyl-2-oxo-7-(2-oxo-2-phenylethoxy)-2H-chromen-3-yl)acetate], the Ki at hCA I was over 100 µM; at hCA II, over 100 µM; on hCA IX, over 100 µM; at hCA XII, 5.25 µM.
As to `COC(=O)Cc1c(C)c2ccc(OCC(=O)c3ccc(Cl)cc3)c(C)c2oc1=O` [EMAC10163j, Methyl 2-(7-(2-(4-chlorophenyl)-2-oxoethoxy)-4,8-dimethyl-2-oxo-2H-chromen-3-yl)acetate], the Ki at hCA I is over 100 µM; at hCA II it was over 100 µM; on hCA IX, over 100 µM; on hCA XII, 2.41 µM.
Regarding `COC(=O)Cc1c(C)c2ccc(OCC(=O)c3cccc(OC)c3)c(C)c2oc1=O` [EMAC10163k, Methyl 2-(7-(2-(3-methoxyphenyl)-2-oxoethoxy)-4,8-dimethyl-2-oxo-2H-chromen-3-yl)acetate], the Ki is over 100 µM at hCA I, over 100 µM at hCA II, over 100 µM on hCA IX and 4.86 µM on hCA XII.
Consider `Cc1ccc(-c2coc3c(C)c4oc(=O)c(CC(=O)O)c(C)c4cc23)cc1` [EMAC10164a, 2-(5,9-Dimethyl-7-oxo-3-(p-tolyl)-7H-furo[3,2-g]chromen-6-yl)acetic acid], for which the Ki is over 100 µM at hCA I, over 100 µM at hCA II, over 100 µM on hCA IX and 4.09 µM at hCA XII.
`COc1ccc(-c2coc3c(C)c4oc(=O)c(CC(=O)O)c(C)c4cc23)cc1` [EMAC10164b, 2-(3-(4-Methoxyphenyl)-5,9-dimethyl-7-oxo-7H-furo[3,2-g]chromen-6-yl)acetic acid]: the Ki is over 100 µM on hCA I, over 100 µM at hCA II, over 100 µM on hCA IX and 4.59 µM at hCA XII.
`Cc1c(CC(=O)O)c(=O)oc2c(C)c3occ(-c4ccc(Br)cc4)c3cc12` [EMAC10164c, 2-(3-(4-Bromophenyl)-5,9-dimethyl-7-oxo-7H-furo[3,2-g]chromen-6-yl)acetic acid]: the inhibitory constant (Ki) on hCA I was over 100 µM; on hCA II, over 100 µM; on hCA IX, over 100 µM; on hCA XII, 4.44 µM.
With `Cc1c(CC(=O)O)c(=O)oc2c(C)c3occ(-c4ccc(F)cc4)c3cc12` [EMAC10164d, 2-(3-(4-Fluorophenyl)-5,9-dimethyl-7-oxo-7H-furo[3,2-g]chromen-6-yl)acetic acid], the Ki at hCA I is over 100 µM; on hCA II it was over 100 µM; at hCA IX, 0.46 µM; on hCA XII it was 0.8 µM.
`Cc1c(CC(=O)O)c(=O)oc2c(C)c3occ(-c4ccc(-c5ccccc5)cc4)c3cc12` [EMAC10164g, 2-(3-([1,1′-Biphenyl]-4-yl)-5,9-dimethyl-7-oxo-7H-furo[3,2-g]chromen-6-yl)acetic acid]: the Ki is over 100 µM at hCA I, over 100 µM on hCA II, 0.71 µM on hCA IX and 0.82 µM at hCA XII.
With `Cc1c(CC(=O)O)c(=O)oc2c(C)c3occ(-c4ccc(F)cc4F)c3cc12` [EMAC10164h, 2-(3-(2,4-Difluorophenyl)-5,9-dimethyl-7-oxo-7H-furo[3,2-g]chromen-6-yl)acetic acid], the Ki was over 100 µM on hCA I, over 100 µM on hCA II, 4.27 µM on hCA IX and 6.37 µM on hCA XII.
As for `Cc1c(CC(=O)O)c(=O)oc2c(C)c3occ(-c4ccccc4)c3cc12` [EMAC10164i, 2-(5,9-Dimethyl-7-oxo-3-phenyl-7H-furo[3,2-g]chromen-6-yl)acetic acid], the Ki on hCA I was over 100 µM; at hCA II it was over 100 µM; at hCA IX it was 3.18 µM; at hCA XII it was 3.38 µM.
`Cc1c(CC(=O)O)c(=O)oc2c(C)c3occ(-c4ccc(Cl)cc4)c3cc12` [EMAC10164j, 2-(3-(4-Chlorophenyl)-5,9-dimethyl-7-oxo-7H-furo[3,2-g]chromen-6-yl)acetic acid]: the Ki was over 100 µM on hCA I, over 100 µM at hCA II, 3.22 µM at hCA IX and 7.86 µM on hCA XII.
For `COc1cccc(-c2coc3c(C)c4oc(=O)c(CC(=O)O)c(C)c4cc23)c1` [EMAC10164k, 2-(3-(3-Methoxyphenyl)-5,9-dimethyl-7-oxo-7H-furo[3,2-g]chromen-6-yl)acetic acid], the Ki on hCA I is over 100 µM; on hCA II, over 100 µM; on hCA IX, 4.16 µM; on hCA XII, 3.66 µM.
